According to ChEMBL document CHEMBL1201862, “PubChem BioAssay data set” (2004):
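Growth conditions: 96-well plates. Treatment: test compound, 48 hours, 5 concentrations. Analysis: linear interpolation between bracketing concentrations; unreached endpoints set to highest concentration. GI50 is the concentration that inhibits growth by half.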 Active and inactive are the calls of the source. No stated cut-off is given here; in the data, active = GI50 up to about 1.1 µM and inactive = higher.

Key:
Experiment in all cases: inhibition of tumour cell growth, NCI panel, 48 h
786-0 = tested on: 786-0
K562 = tested on: K562
COLO 205 = tested on: COLO 205
U-251 = tested on: U-251
HOP-92 = tested on: HOP-92
BT-549 = tested on: BT-549
OVCAR-5 = tested on: OVCAR-5
NCI-H226 = tested on: NCI-H226
SF-295 = tested on: SF-295
OVCAR-8 = tested on: OVCAR-8
NCI-H23 = tested on: NCI-H23
KM12 = tested on: KM12
DU-145 = tested on: DU-145
EKVX = tested on: EKVX
TK-10 = tested on: TK-10
UACC-257 = tested on: UACC-257
LOX IMVI = tested on: LOX IMVI
SK-MEL-2 = tested on: SK-MEL-2
T47D = tested on: T47D

Row | Structure (SMILES) | GI50 (786-0) | GI50 (K562) | GI50 (COLO 205) | GI50 (U-251) | GI50 (HOP-92) | GI50 (BT-549) | GI50 (OVCAR-5) | GI50 (NCI-H226) | GI50 (SF-295) | GI50 (OVCAR-8) | GI50 (NCI-H23) | GI50 (KM12) | GI50 (DU-145) | GI50 (EKVX) | GI50 (TK-10) | GI50 (UACC-257) | GI50 (LOX IMVI) | GI50 (SK-MEL-2) | GI50 (T47D)
1 | COc1cccc(N2C(=O)C3CC(CC(C)(C)C)c4c([nH]c5ccccc45)C3C2=O)c1 (stereo not drawn) | 3.8 µM (inactive) | > 10 µM (inactive) | > 10 µM (inactive) | 7.91 µM (inactive) | > 10 µM (inactive) | 9.51 µM (inactive) | > 10 µM (inactive) | 2.77 µM (inactive) | > 10 µM (inactive) | 3.56 µM (inactive) | > 10 µM (inactive) | > 10 µM (inactive) | > 10 µM (inactive) | > 10 µM (inactive) | > 10 µM (inactive) | > 10 µM (inactive) | 9.44 µM (inactive) | > 10 µM (inactive) | > 10 µM (inactive)
2 | CCOC(=O)C1CCCCN1C(=O)Cc1c[nH]c2ccccc12 (stereo not drawn) | > 100 µM (inactive) | 68.9 µM (inactive) | 66.2 µM (inactive) | 67.3 µM (inactive) | 16 µM (inactive) | 94.8 µM (inactive) | > 100 µM (inactive) | > 100 µM (inactive) | 66.2 µM (inactive) | 42.4 µM (inactive) | 80.2 µM (inactive) | 41.3 µM (inactive) | 84.1 µM (inactive) | 59.2 µM (inactive) | > 100 µM (inactive) | 79.3 µM (inactive) | 59.4 µM (inactive) | 61.9 µM (inactive) | 37 µM (inactive)
3 | CC(=O)OC[C@@]1(C)[C@@H]2[C@@H]3[C@@]4(CO[C@]3(C)C(=O)[C@@]3(OC(C)=O)C[C@H](C)[C@H](OC(C)=O)[C@@H]3[C@H]4OC(C)=O)[C@H](OC(=O)c3ccccc3)C[C@@H]21 | > 100 µM (inactive) | 24 µM (inactive) | 49.8 µM (inactive) | > 100 µM (inactive) | > 100 µM (inactive) | > 100 µM (inactive) | > 100 µM (inactive) | > 100 µM (inactive) | 93.3 µM (inactive) | > 100 µM (inactive) | > 100 µM (inactive) | > 100 µM (inactive) | > 100 µM (inactive) | 63.2 µM (inactive) | > 100 µM (inactive) | > 100 µM (inactive) | 79.6 µM (inactive) | > 100 µM (inactive) | 66.2 µM (inactive)
4 | COc1cc2c(cc1OCc1ccccc1)NC(=O)[C@@H]1C[C@@H](O)CN1C2=O | > 100 µM (inactive) | > 100 µM (inactive) | > 100 µM (inactive) | > 100 µM (inactive) | > 100 µM (inactive) | > 100 µM (inactive) | > 100 µM (inactive) | > 100 µM (inactive) | > 100 µM (inactive) | > 100 µM (inactive) | > 100 µM (inactive) | > 100 µM (inactive) | > 100 µM (inactive) | > 100 µM (inactive) | > 100 µM (inactive) | > 100 µM (inactive) | > 100 µM (inactive) | > 100 µM (inactive) | > 100 µM (inactive)
5 | COc1cc(NCCC2CCCCN2)c2ncccc2c1 (stereo not drawn) | > 82 µM (inactive) | > 44.2 µM (inactive) | 13.5 µM (inactive) | 56.4 µM (inactive) | 60.8 µM (inactive) | > 100 µM (inactive) | > 100 µM (inactive) | > 63.8 µM (inactive) | 67.1 µM (inactive) | > 100 µM (inactive) | > 100 µM (inactive) | 60.4 µM (inactive) | > 76.9 µM (inactive) | > 100 µM (inactive) | > 73.6 µM (inactive) | 19.4 µM (inactive) | 52.2 µM (inactive) | > 55.7 µM (inactive) | 0.397 µM (active)
6 | CC1OC(c2ccc3c(c2O)C(=O)C2=C(C3=O)C3(O)C(=O)CC(C)(O)CC3(O)C=C2)CC(O)C1O (stereo not drawn) | 16.8 µM (inactive) | 2.7 µM (inactive) | 1.75 µM (inactive) | 16.7 µM (inactive) | 14.7 µM (inactive) | 18.7 µM (inactive) | 17 µM (inactive) | 19.8 µM (inactive) | 16.6 µM (inactive) | 14.1 µM (inactive) | 20.6 µM (inactive) | 21.3 µM (inactive) | 15.6 µM (inactive) | 16 µM (inactive) | 15.1 µM (inactive) | 15 µM (inactive) | 14 µM (inactive) | 20.5 µM (inactive) | 11.5 µM (inactive)
7 | CC1CN(CCO)CCN1c1ccccc1 (stereo not drawn) | > 100 µM (inactive) | > 100 µM (inactive) | > 100 µM (inactive) | > 100 µM (inactive) | > 100 µM (inactive) | > 100 µM (inactive) | > 100 µM (inactive) | > 100 µM (inactive) | > 100 µM (inactive) | > 100 µM (inactive) | > 100 µM (inactive) | > 100 µM (inactive) | > 100 µM (inactive) | > 100 µM (inactive) | > 100 µM (inactive) | > 100 µM (inactive) | > 100 µM (inactive) | > 100 µM (inactive) | > 100 µM (inactive)
